US11660319B2, “Compositions comprising bacterial strains” (priority 2017, dated 2023)

Assays:
HDAC = HDAC inhibition on whole HT-29 cells and HT-29 cell lysate; assay type: cell-based
Experimental: Bacterial culture and cell-free supernatant collection Pure cultures of bacteria were grown anaerobically in YCFA broth until they reached their stationary growth phase. Cultures were centrifuged at 5,000×g for 5 minutes and the cell-free supernatant (CFS) was filtered using a 0.2 μM filter (Millipore, UK). 1 mL aliquots of the CFS were stored at −80° C. until use. Sodium butyrate, hexanoic and valeric acid were obtained from Sigma Aldrich (UK) and suspensions were prepared in YCFA broth.
To investigate which metabolites were responsible for the strain-induced HDAC inhibition, different concentrations of hexanoic acid, valeric acid and sodium butyrate were measured for their HDAC inhibition on whole HT-29 cells and on HT-29 cell lysate.

SH-SY5Y cells = assay: MAP2 and β3-tubulin immunoblotting / confocal microscopy; assay type: cell-based, human; settings: treated 24 h; actin loading control
Experimental: Cells were seeded onto 8-well chamber slides (Marienfeld Laboratory Glassware) at 5×10^4 cells/well overnight and were treated with 10% bacterial supernatant for 24 h. For differentiation, cells were treated with 10 nM RA for 5 days before treating with cell-free bacterial supernatant for 24 h. Afterwards, the cells were fixed with 4% paraformaldehyde in PBS for 20 minutes at room temperature (RT). Fixed cells were washed with PBS, and permeabilized with 1% Triton X-100 in PBS for 10 minutes. After washing with PBS, the slides were incubated with blocking buffer (4% BSA/PBS) for 1 h at RT before adding anti-MAP2 antibody or β3-tubulin (sc-74421 and sc-80005 respectively, Santa Cruz Biotechnology Inc) diluted in 1% BSA/PBS for 12 h at 4° C. They were then washed twice with PBS, followed by incubation with Alexa Flour 488 conjugated anti-mouse (Molecular Probes Inc) and Alexa Flour 594 conjugated Phalloidin (ab176757, Abcam) for 1 h at RT. […]
SH-SY5Y cells cultured under the indicated conditions described above, treated with MRx0005 and MRx0029 for 24 h and then lysed in RIPA buffer containing cocktail of protease inhibitors (Roche Diagnostics, UK). […] The blots were then incubated with the appropriate horseradish peroxidase (HRP)-conjugated secondary antibody, and proteins were detected by chemiluminescence detection kit (Pierce Biotechnology, Rockford, Ill.). […]

[1] = ABTS antioxidant capacity assay of bacterial cell lysate; settings: compared to Trolox
Experimental: Bacterial cells (10^6 or greater) were collected and centrifuged. They were resuspended in assay buffer (using three times the pellet volume). The suspension was sonicated on ice for 5 minutes and then spun down at 12,000×g for 10 minutes. The supernatant was removed and measured using the ABTS assay kit produced by Sigma Aldrich (code CS0790), in accordance with manufacturer's instructions.

[2] = system: HT29-mtx epithelial, mucin-producing cell monolayers; assay: mRNA expression of tight junction proteins in HT29-mtx (qRT-PCR); assay type: cell-based; settings: 2 h incubation
Experimental: Total RNA was extracted using the RNeasy mini kit (Qiagen, Manchester, JUK) according to the manufacturer's instructions, and the RNA concentration determined by absorbance at 260/280 nm using a spectrophotometer (nano-Drop ND-1000; Thermo Scientific, Wilmington, Del.). For mRNA expression analysis, cDNA was prepared from total RNA using the High-Capacity cDNA reverse transcription kit (Applied Biosystems, UK) according to the manufacturer's instructions. The reverse transcription reactions were performed in a Thermo cycler (Biometra, Germany) at 25° C. for 10 min, 37° C. for 120 min, and 85° C. for 5 min, hold on at 4° C. Resulting cDNA was amplified in duplicates by the SYBR-Green PCR assay, and products were detected on QuantStudio 6 flex real-time PCR machine (Applied Biosystems, UK) using a standardised profile (initial denaturation of 95° C. for 10 minutes, followed by 40 cycles of 15 seconds of denaturation at 95° C. and 60 seconds of annealing/extension at 60/65° C., depending on the primers. A dissociation stage was added after the 40 cycles to generate a melting curve. Analysis was performed using the Applied Biosystems QuantStudio Real-Time PCR Software v1.2. The primer sequences for Actin, Villin, Occludin TJP1 and TJP2 are provided in the sequence listing.

[3] = system: SH-SY5Y neuroblastoma cells; assay: Neuroprotection / cell viability of neuroblastoma cells treated with MPP (CCK-8); assay type: cell-based, human
Experimental: Once grown the SH-SY5Y neuroblastoma cells were plated on 96-well plate at 11,000 cells/well and incubated for 2 days. The cells were then transferred to differentiation medium (which contains FBS at 1%) and 10 uM retinoic acid (Sigma Aldrich, cat. n. R2625-100MG). Differentiation medium was replaced every other day and cells were harvested at 7 day of differentiation. Cells were pre-treated with or without MPP (Sigma Aldrich, cat. n. D048-1G) for 8 hours. Subsequently, cells were treated with 10% bacterial supernatant and incubated overnight. Cell viability was measured by using CCK-8 reagent (Sigma Aldrich, Cell Counting Kit-8, cat. n. 96992-3000TESTS-F) and read at 450 nm wavelength.

[4] = system: differentiated neuroblasoma cells; assay: BDNF secretion in SHSY-5Y cells; assay type: cell-based, human; settings: in combination with retinoic acid (10 μM, differentiation); 50 μl bacteria SN
Experimental: SH-SY5-SY were plated in 24 wells plate at density of 60,000 cells/well and placed in the incubator. After 24 h, media were replaced with differentiation medium (growth medium containing 1% FBS) and 10 μM retinoic acid. Differentiation medium was replaced every other day and cells were used on day 10 of differentiation. For the treatment differentiation medium was removed and replaced with 450 ul of full growth media and 50 μl of bacteria SN was added to the treated wells or YCFA+ was added as negative Control.

[5] = Lipid peroxidation, thiobarbituric reactive substances assay (TBARs); settings: positive control butylated hydroxytoluene (1% w/v)
Experimental: Bacterial cells (10^6 or greater) were collected and centrifuged, a wash step was performed with isotonic saline before the pellet was re-suspended in potassium chloride assay buffer. The suspension was sonicated on ice for 10 minutes and then spun down at 10,000×g for 10 minutes. The supernatant was removed and the level of lipid peroxidation evaluated using the thiobarbituric reactive substances assay.

Substance: Megasphaera massiliensis [MRx0029]
- HDAC inhibition, HT29 cell lysate (HDAC; HT-29 cell lysate): strong HDAC inhibition
- HDAC inhibition, HT29 whole cell (HDAC; whole HT-29 cells): strong HDAC inhibition
- level expression of MAP2 (immunoblot) (SH-SY5Y cells): increase
- antioxidant capacity [1]: approximately 2 mM
- Occludin mRNA expression [2]: enhanced
- Tight Junction Protein 1 (TJP1) mRNA expression [2]: enhanced
- Tight Junction Protein 2 (TJP2) mRNA expression [2]: enhanced
- Vlillin mRNA expression [2]: enhanced
- proliferation of neurons ([3]; 10% bacterial supernatant, without MPP): increase
- cell viability of cells treated with MPP ([3]; MPP pre-treatment 8 hours, then 10% bacterial supernatant overnight, compared to MPP alone): rescued viability more than the positive control
- protection from MPP+ (cell viability) ([3]; RA-differentiated SHSY-5Y cells treated with MPP+): complete protection
- mitochondria metabolic activity ([3]; RA-differentiated SHSY-5Y cells, per se (no MPP+)): increase
- secretion of BDNF [4]: increases
- inhibition of lipid peroxidation [5]: approximately 20%
